Measured values reported in US20230136562A1, “SPIROUREA DERIVATIVES” (Idorsia Pharmaceuticals Ltd, priority 2020, published 2023).

How the values were obtained:
DBA/2J mice = assay: Audiogenic seizure-sensitive mouse model of generalized convulsive seizures (AGS); assay type: in vivo; conditions: challenge 1 h, 90% MC 0.5% + 10% PEG400, read-out: Seizure stage [% vs. vehicle]
Method: (§1) Formulation and Administration.
(§2) Compounds were formulated in a 10% polyethylene glycol 400 (PEG 400)/90% aqueous solution of 0.5% methylcellulose (MC 0.5%). Firstly drugs are dissolved in PEG 400 and then suspended in MC 0.5% for oral gavage at X mg/5 mL/kg (X see table).
Audiogenic Seizure-Sensitive Mouse Model of Generalized Convulsive Seizures
1. Procedure: Following two days of acclimatisation, auditory seizures are induced in male juvenile DBA/2J mice (22-24 days old). Each mouse is placed individually in the exposure chamber, an hemispheric acrylic glass dome (diameter: 50 cm) within a sound-attenuated box. The sound-attenuated box is equipped with two house lights and a camera system (Fire-I from Unibrain) in order to observe and record the behavioral seizure response. After 60 seconds of habituation, the stimulus, a mixed frequency tone of 15-20 kHz at 110 dB (SASLab Lite, Avisoft Bioacoustics), is played from a speaker that is placed on the top center of the dome. […] Seizures are classified as following: stage 0, normal behavior; stage 1, wild running; stage 2, generalized clonus; stage 3, tonic extension of the hind limbs.
2. Compounds testing: Acute compound effects on audiogenic generalized convulsive seizures are evaluated in independent groups of 8-10 mice randomly assigned. Following oral administration of compound or vehicle, the maximum seizure stage during sound exposure is assessed. Compounds are given 1 hour before exposure to the stimulus. Each mouse is exposed to the auditory stimulus only once and euthanized afterwards by CO2 inhalation.

Kv7.2/7.3 = target: T1, Kv7.2/7.3 (Homo sapiens, UniProt O43525+O43526); assay: Kv7.2/3 assay (FLIPR potassium assay, agonist mode); assay type: cell-based; conditions: Kv7.2/7.3 activation; HEK293 cells, human KCNQ2 and KCNQ3
T1 construct: expressed in transfected cells; host or cells: HEK293
Method: HEK293 cells were stably transfected with the appropriate ion channel cDNA(s) (human KCNQ2 and KCNQ3 genes). Cells were cultured in Dulbecco's Modified Eagle Medium/Nutrient mixture F-12 (D-MEM/F-12) supplemented with 10% fetal bovine serum, 100 U/mL penicillin G sodium, 100 µg/mL streptomycin sulfate and selection antibiotics. FLIPR Test Procedure: For FLIPR assay, cells were plated in 384-well black clear-bottomed microtiter plates (BD Biocoat Poly-D-Lysine Multiwell Cell Culture Plate) at 15'000 to 30'000 cells per well. Cells were incubated at 37° C. overnight or until cells reached sufficient density in the wells (near confluent monolayer) to use in fluorescence assays. […] Assays were performed with the FLIPR potassium assay kit (Molecular Devices) according to the manufacturer's instructions. Dye-loading: Growth media was removed and replaced with 20 μL of dye loading buffer for 60 min at room temperature. FLIPR Recording (agonist mode): Stock solutions of test compounds were prepared at a concentration of 33.3 mM in DMSO. 5 μL of 5× concentrated test, vehicle, or control compounds solutions prepared in the stimulation buffer (K^+-free buffer with 5 mM TI^+) were added to each well and fluorescence recording was continued for 5 min. The agonist effect (EC50 and % effect) of test or control compounds on Kv7 channels was determined as follows: Raw data was exported using Screenworks® 4.2 software and the fluorescence traces were analysed using Microsoft Excel (Microsoft Corp., Redmond, Wash.). The test compounds responses were expressed as % of maximum response of the control compound Flupirtine (Sigma-Aldrich), which was tested at concentrations ranging from 0.03 to 100 μM. Concentration-response data were fitted to a Hill equation. Non-linear least squares fits were made assuming a simple binding model. If appropriate, fits were weighted by the standard deviation. No assumptions about the fit parameters were made; the fit parameters were determined by the algorithm.

Wistar rats = assay: Amygdala-kindling rat model; assay type: in vivo; conditions: formulation 90% MC 0.5% + 10% PEG400
Method: as §1, §2
Amygdala-Kindling Rat Model:
1. Procedure: Adult male Wistar rats (Harlan Laboratories, Netherlands, or Charles Rivers, Germany; body weight 300-350 g) were stereotaxically implanted with twisted bipolar plastic-coated stainless steel electrode (MS333-2-BIU 10 mm, Plastics One) into the right basolateral amygdala under isoflurane anesthesia. To place the electrode, trepanations were made in the skull and the electrode was lowered into the right basolateral amygdala (from bregma: anteriorposterior (AP): −2.5 mm, medio-lateral (ML): −3.5 mm, dorso-ventral (DV): −8.6 mm; α=10°) and secured to the skull with screws and dental acrylate. After one week of recovery, they were handled daily and habituated over one week to the kindling set-up. Kindling procedure: For a kindling session each rat was placed individually into a smooth acrylic plastic, round-bottomed bowl (Ø 36 cm, height 36 cm, BASi movement-responsive caging system) and its intracranial implanted electrode was connected to the stimulator (STG4008, Multichannel Systems GmbH) and the recording devices (PowerLab 8/35, ADInstruments Ltd) via a cable (335-340/3 (C), Plastics One). For the kindling procedure, each rat was exposed once daily to an electrical stimulation and the behavioral symptoms of the evoked seizure were observed and classified according to the modified Racine scale (stage 0, arrest, wet dog shakes, normal behaviour; stage 1, facial twitches: nose, lips, eyes; stage 2, chewing, head nodding; stage 3, forelimb clonus; stage 4, rearing, falling on forelimbs; stage 5, rearing, falling on side or back, rolling). The electrical stimulus consists of a 1s-train of 50 Hz square-wave biphasic pulses of 1-ms duration at an intensity of 400 μA (suprathreshold intensity). […] Data Scoring and analysis. The duration of electroencephalographic seizures (afterdischarge, AD) was recorded using LabChart7 Pro software (ADlnstruments Ltd). Simultaneously, videos were recorded to evaluate seizure stage (SS).
2. Compound testing: Acute drug effects were evaluated in groups of 6-8 fully kindled rats in a randomized cross-over design with 48 h between drug and vehicle applications. Following oral administration of drug or vehicle, drug testing included determination of the afterdischarge threshold (the minimal stimulation intensity necessary to evoke an afterdischarge (electroencephalographically measured neuronal hyper-synchronous activity with an amplitude 2-times higher than baseline amplitude and a frequency of ≥1 Hz) of at least 3 sec duration) and monitoring electroencephalographic and behavioral correlates of the evoked seizure at ADT (afterdischarge threshold), including AD duration and SS, by a experimenter blind to treatment assignment.

[1] = 100 mg/kg po, time of challenge 1 h
[2] = 10 mg/kg po, time of challenge 15 min
[3] = 30 mg/kg po, time of challenge 1 h

SMILES	change in vivo at 30 mg/kg (DBA/2J mice; 30 mg/kg po) [%]	EC50 (Kv7.2/7.3) [nM]	AD duration [% vs veh] (Wistar rats; [1])	Seizure stage [% vs veh] (Wistar rats; [1])	change in vivo at 5 mg/kg (DBA/2J mice; 5 mg/kg po) [%]	AD duration [% vs veh] (Wistar rats; [2])	Seizure stage [% vs veh] (Wistar rats; [2])	change in vivo at 10 mg/kg (DBA/2J mice; 10 mg/kg po) [%]	AD duration [% vs veh] (Wistar rats; [3])	Seizure stage [% vs veh] (Wistar rats; [3])
O=C(NCc1cccc(C(F)(F)F)c1)NC1CC2(CC2)C1 [Example 2, 1-Spiro[2.3]hex-5-yl-3-(3-trifluoromethyl-benzyl)-urea]	-95	70	−93	−88	–	–	–	–	–	–
O=C(NC1CC2(CC2)C1)N[C@@H](CO)c1cccc(C(F)(F)F)c1 (single isomer, unassigned) [Example 186]	–	23	–	–	-67	−87	−50	–	–	–
O=C(NCc1cc(OCC(F)(F)F)ncn1)NC1CC2(CCC2)C1 [Example 59, 1-Spiro[3.3]hept-2-yl-3-[6-(2,2,2-trifluoro-ethoxy)-pyrimidin-4-ylmethyl]-urea]	–	12.4	–	–	–	–	–	-70	−96	−83
